Measurements reported in patent publication US20250057828A1, “COMBINATION OF AN A2-ADRENOCEPTOR SUBTYPE C (ALPHA-2C) ANTAGONIST WITH A NOREPINEPHRINE REUPTAKE INHIBITOR FOR THE TREATMENT OF SLEEP APNEA” (priority 2021, published 2025).

System: pig model of obstructive sleep apnea (OSA)
Assay: pig model of obstructive sleep apnea (OSA): collapsibility of the upper respiratory tract under negative pressure
Format: in vivo, German Landrace pigs
Source text: The therapeutic potential of the combination of an α2-Adrenoceptor subtype C (alpha-2C) antagonists with a muscarinic receptor antagonist according to the present invention in sleep apnea can be assessed preclinically in a pig model of obstructive sleep apnea (OSA).
Using negative pressure, it is possible to induce collapse and thus obstruction of the upper respiratory tract in anaesthetized, spontaneously breathing pigs (Wirth K. J. et al., Sleep 36(5) (2013) pp. 699-708).
German Landrace pigs are used for the model. The pigs are anaesthetized and tracheotomized. Two tracheal cannulas are inserted into the trachea, one into the rostral part and the other into the caudal part of the trachea. Using a connection piece, the rostral cannula is connected to a tube to the negative pressure device and to the distal tracheal cannula. The distal tracheal cannula is additionally connected to a tube with an open end to atmosphere via a connection piece that served for free tracheal breathing, circumventing the upper airway. By appropriate opening and clamping of those tubes breathing can be switched from nasal breathing to breathing through the caudal tracheal cannula, circumventing the upper airway, and the (isolated) upper airway can be connected to the negative pressure device, causing airflow in the inspiratory direction.
At certain points in time, the collapsibility of the upper respiratory tract is tested by having the pig breathe via the caudal cannula and applying negative pressures of −50, −100 and −150 cm water head (cm H2O) to the upper respiratory tract. This causes the upper respiratory tract to collapse, which manifests itself in an interruption of the airflow and a pressure drop in the tube system. This test is conducted prior to the administration of the test substance and at certain intervals after the administration of the test substance. An appropriately effective test substance can prevent this collapse of the respiratory tract in the inspiratory phase.

[1] = 0.01 mg/kg intraduodenal, 0 min
[2] = 0.01 mg/kg intraduodenal, 30 min
[3] = 0.01 mg/kg intraduodenal, 60 min
[4] = 0.01 mg/kg intraduodenal, 90 min
[5] = 0.01 mg/kg intraduodenal, 120 min
[6] = 0.01 mg/kg intraduodenal, 150 min
[7] = 0.01 mg/kg intraduodenal, 180 min
[8] = 0.01 mg/kg intraduodenal, 240 min
[9] = 0.01 mg/kg intraduodenal, 270 min
[10] = 0.01 mg/kg intraduodenal, 300 min
[11] = R-oxybutynin intravenous bolus 1 mg/kg + infusion 0.275 mg/kg/h for four hours, 0 min
[12] = R-oxybutynin intravenous bolus 1 mg/kg + infusion 0.275 mg/kg/h for four hours, 10 min
[13] = R-oxybutynin intravenous bolus 1 mg/kg + infusion 0.275 mg/kg/h for four hours, 30 min
[14] = R-oxybutynin intravenous bolus 1 mg/kg + infusion 0.275 mg/kg/h for four hours, 60 min
[15] = R-oxybutynin intravenous bolus 1 mg/kg + infusion 0.275 mg/kg/h for four hours, 120 min
[16] = R-oxybutynin intravenous bolus 1 mg/kg + infusion 0.275 mg/kg/h for four hours, 180 min
[17] = R-oxybutynin intravenous bolus 1 mg/kg + infusion 0.275 mg/kg/h for four hours, 240 min
[18] = intravenous bolus 1 mg/kg followed by infusion of 0,275 mg/kg/h for four hours
[19] = intravenous bolus 1 mg/kg + infusion 0.275 mg/kg/h for four hours, 0 min
[20] = intravenous bolus 1 mg/kg + infusion 0.275 mg/kg/h for four hours, 10 min
[21] = intravenous bolus 1 mg/kg + infusion 0.275 mg/kg/h for four hours, 30 min
[22] = intravenous bolus 1 mg/kg + infusion 0.275 mg/kg/h for four hours, 60 min
[23] = intravenous bolus 1 mg/kg + infusion 0.275 mg/kg/h for four hours, 120 min
[24] = intravenous bolus 1 mg/kg + infusion 0.275 mg/kg/h for four hours, 180 min
[25] = intravenous bolus 1 mg/kg + infusion 0.275 mg/kg/h for four hours, 240 min

## C[C@@H]1CCCN(C2CCN(c3ncc(C(=O)NCc4ncc(F)cc4F)s3)CC2)C1 [N-[(3,5-difluoropyridin-2-yl)methyl]-2-[(3R)-3-methyl[1,4′-bipiperidin]-1′-yl]-1,3-thiazole-5-carboxamide]
0.01 mg/kg intraduodenal
  inhibited upper airway collapsibility at all negative pressures of −50, −100 and −150 cm head (cm H2O) in all pigs: at no time point
0.01 mg/kg intraduodenal, time point 120 min
  upper airway collapsibility at the negative pressures of −50 and −100 cm head (cm H2O): inhibited
0.01 mg/kg intraduodenal, time point 150 min
  upper airway collapsibility at the negative pressure of −50 cm head (cm H2O): inhibited
[1]
  Percent pigs without collaps −50 cm H2O, %: 0%
  Percent pigs without collaps −100 cm H2O, %: 0%
  Percent pigs without collaps −150 cm H2O, %: 0%
[2]
  Percent pigs without collaps −50 cm H2O, %: 0%
  Percent pigs without collaps −100 cm H2O, %: 0%
  Percent pigs without collaps −150 cm H2O, %: 0%
[3]
  Percent pigs without collaps −50 cm H2O, %: 25%
  Percent pigs without collaps −100 cm H2O, %: 0%
  Percent pigs without collaps −150 cm H2O, %: 0%
[4]
  Percent pigs without collaps −50 cm H2O, %: 75%
  Percent pigs without collaps −100 cm H2O, %: 75%
  Percent pigs without collaps −150 cm H2O, %: 0%
[5]
  Percent pigs without collaps −50 cm H2O, %: 100%
  Percent pigs without collaps −100 cm H2O, %: 100%
  Percent pigs without collaps −150 cm H2O, %: 50%
[6]
  Percent pigs without collaps −50 cm H2O, %: 100%
  Percent pigs without collaps −100 cm H2O, %: 75%
  Percent pigs without collaps −150 cm H2O, %: 25%
[7]
  Percent pigs without collaps −50 cm H2O, %: 75%
  Percent pigs without collaps −100 cm H2O, %: 50%
  Percent pigs without collaps −150 cm H2O, %: 0%
[8]
  Percent pigs without collaps −50 cm H2O, %: 50%
  Percent pigs without collaps −100 cm H2O, %: 25%
  Percent pigs without collaps −150 cm H2O, %: 0%
[9]
  Percent pigs without collaps −50 cm H2O, %: 25%
  Percent pigs without collaps −100 cm H2O, %: 25%
  Percent pigs without collaps −150 cm H2O, %: 0%
[10]
  Percent pigs without collaps −50 cm H2O, %: 25%
  Percent pigs without collaps −100 cm H2O, %: 0%
  Percent pigs without collaps −150 cm H2O, %: 0%

## CCN(CC)CC#CCOC(=O)[C@](O)(c1ccccc1)C1CCCCC1 [R-oxybutynin, R-Oxybutynin]
R-Oxybutynin intravenous bolus 1 mg/kg + infusion 0,275 mg/kg/h, time point 60 min
  upper airway collapsibility at the negative pressure of −50 cm head (cm H2O): inhibited
[11]
  Percent pigs without collaps −50 cm H2O, %: 0%
  Percent pigs without collaps −100 cm H2O, %: 0%
  Percent pigs without collaps −150 cm H2O, %: 0%
[12]
  Percent pigs without collaps −50 cm H2O, %: 0%
  Percent pigs without collaps −100 cm H2O, %: 0%
  Percent pigs without collaps −150 cm H2O, %: 0%
[13]
  Percent pigs without collaps −50 cm H2O, %: 0%
  Percent pigs without collaps −100 cm H2O, %: 0%
  Percent pigs without collaps −150 cm H2O, %: 0%
[14]
  Percent pigs without collaps −50 cm H2O, %: 100%
  Percent pigs without collaps −100 cm H2O, %: 50%
  Percent pigs without collaps −150 cm H2O, %: 0%
[15]
  Percent pigs without collaps −50 cm H2O, %: 0%
  Percent pigs without collaps −100 cm H2O, %: 0%
  Percent pigs without collaps −150 cm H2O, %: 0%
[16]
  Percent pigs without collaps −50 cm H2O, %: 0%
  Percent pigs without collaps −100 cm H2O, %: 0%
  Percent pigs without collaps −150 cm H2O, %: 0%
[17]
  Percent pigs without collaps −50 cm H2O, %: 0%
  Percent pigs without collaps −100 cm H2O, %: 0%
  Percent pigs without collaps −150 cm H2O, %: 0%
[18]
  inhibited upper airway collapsibility at all negative pressures of −50, −100 and −150 cm head (cm H2O) in all pigs: at no time

## CCN(CC)CC#CCOC(=O)C(O)(c1ccccc1)C1CCCCC1 (stereo not drawn) [oxybutynin, Oxybutynin]
[19]
  Percent pigs without collaps −50 cm H2O, %: 0%
  Percent pigs without collaps −100 cm H2O, %: 0%
  Percent pigs without collaps −150 cm H2O, %: 0%
[20]
  Percent pigs without collaps −50 cm H2O, %: 0%
  Percent pigs without collaps −100 cm H2O, %: 0%
  Percent pigs without collaps −150 cm H2O, %: 0%
[21]
  Percent pigs without collaps −50 cm H2O, %: 0%
  Percent pigs without collaps −100 cm H2O, %: 0%
  Percent pigs without collaps −150 cm H2O, %: 0%
[22]
  Percent pigs without collaps −50 cm H2O, %: 0%
  Percent pigs without collaps −100 cm H2O, %: 0%
  Percent pigs without collaps −150 cm H2O, %: 0%
[23]
  Percent pigs without collaps −50 cm H2O, %: 0%
  Percent pigs without collaps −100 cm H2O, %: 0%
  Percent pigs without collaps −150 cm H2O, %: 0%
[24]
  Percent pigs without collaps −50 cm H2O, %: 0%
  Percent pigs without collaps −100 cm H2O, %: 0%
  Percent pigs without collaps −150 cm H2O, %: 0%
[25]
  Percent pigs without collaps −50 cm H2O, %: 0%
  Percent pigs without collaps −100 cm H2O, %: 0%
  Percent pigs without collaps −150 cm H2O, %: 0%
[18]
  inhibited upper airway collapsibility at all negative pressures of −50, −100 and −150 cm head (cm H2O) in all pigs: at no time
